pIC50: −log10 of the molar value.
Assays:
[1] = target: T1, SHP2 (Homo sapiens, UniProt Q06124); test: Time-dependent IC50 determination, SHP2 (10 min preincubation, pNPP); format: biochemical; conditions: 10 mM pNPP, pH 7, 25° C, read-out: 10 Minute IC50
T1 construct: 4× solution of SHP2 (residues 224-528)
T1 sequence (Q06124 224-528): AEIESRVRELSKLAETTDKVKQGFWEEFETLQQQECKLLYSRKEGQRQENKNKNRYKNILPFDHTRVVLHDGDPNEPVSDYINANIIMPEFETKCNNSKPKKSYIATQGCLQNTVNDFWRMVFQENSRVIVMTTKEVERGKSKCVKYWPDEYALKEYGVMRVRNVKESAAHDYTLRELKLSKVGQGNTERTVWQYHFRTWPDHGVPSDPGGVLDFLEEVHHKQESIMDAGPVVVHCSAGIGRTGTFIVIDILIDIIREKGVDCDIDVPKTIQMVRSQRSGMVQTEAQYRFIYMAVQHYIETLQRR
Protocol: (§1) During active compound characterization, other common PTPs, including SHP1. PTP1B, and LYP, were counter-screened. Compounds were incubated for 10 minutes with the corresponding PTP (4 μM) before being diluted 50-fold into a solution containing excess substrate para-nitrophenyl phosphate (10 mM) to monitor the remaining activity. […] This was not expected, given their high sequence and structural homology. […] While unexpected, the lower sequence homology provides a rationale for the observed selectivity.
(§2) Inhibitors were evaluated for their ability to inhibit the reaction catalyzed by SHP2 using para-nitrophenyl phosphate (pNPP) as a substrate at pH 7 and 25° C. The reaction was started in a clear flat-bottom 96-well plate (Corning Costar Assay Plate #9017) by the addition of 25 μL of 4 μM PTP in DMG buffer to 25 μl of 2× inhibitor (final concentrations=2 μM PTP, 100-0 μM inhibitor). Reactions were incubated for 1 or 10 minutes before transferring 4 μL into 196 μL of 10.1 mM pNPP in DMG buffer (final concentration=40 nM PTP, 10 mM pNPP). These wells were then allowed to react for 10, 45, or 3 minutes for SHP1 and SHP2, LYP, PTP1B respectively before quenching with 50 μL of 5 M NaOH. Plates were then read for absorbance at 405 nm using a CLARIOstar^Plus plate reader (BMG Labetch). […]

[2] = target: SHP1 (Homo sapiens, UniProt P29350); test: Time-dependent IC50 determination, SHP1 (10 min preincubation, pNPP); format: biochemical
Protocol: as §1, §2

[3] = target: T2, PTP1B (Homo sapiens, UniProt P18031); test: Time-dependent IC50 determination, PTP1B (10 min preincubation, pNPP); format: biochemical
T2 sequence (P18031 1-435): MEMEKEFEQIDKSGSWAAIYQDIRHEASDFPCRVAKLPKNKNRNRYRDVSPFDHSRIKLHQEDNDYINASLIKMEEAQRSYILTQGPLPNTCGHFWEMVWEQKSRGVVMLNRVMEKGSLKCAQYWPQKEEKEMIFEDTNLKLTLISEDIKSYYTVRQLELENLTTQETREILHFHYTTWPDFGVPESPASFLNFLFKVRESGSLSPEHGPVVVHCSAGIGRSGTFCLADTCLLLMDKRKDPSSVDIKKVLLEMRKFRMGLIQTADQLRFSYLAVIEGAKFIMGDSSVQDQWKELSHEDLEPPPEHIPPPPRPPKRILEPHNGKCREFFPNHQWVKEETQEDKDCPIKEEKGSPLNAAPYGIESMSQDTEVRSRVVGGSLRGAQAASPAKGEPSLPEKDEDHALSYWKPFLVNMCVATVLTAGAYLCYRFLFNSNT
Protocol: as §1, §2

[4] = target: T1, SHP2; test: Covalent adduct formation on SHP2 by intact protein LC-MS; format: binding; conditions: 10 μM SHP2, 60 minutes
Protocol: To validate covalent modification of SHP2 by the active compounds, adduct formation on SHP2 was measured by intact protein liquid chromatography-mass spectrometry (LC-MS). With intact protein LC-MS, multiply charged states of the protein species can be deconvoluted to achieve the total mass(es). Compounds were incubated with 10 μM SHP2 for 60 minutes before being quenched with acetonitrile for LC-MS analysis by electrospray ionization (ESI) in positive mode. […] (33), and (42) (FIGS. 3A and 3B).
To unfold protein and quench protein-ligand reactivity, 10 μL of treated or untreated 10 μM SHP2 was diluted in 40 μL of 80% (v/v) formic acid initially, followed by 150 μL of LC-MS buffer (50/50 water/acetonitrile with 0.1% formic acid). 20-25 pmol per sample was analyzed by LC/MS (Agilent 1260 Infinity II with a ZORBAX Rapid Resolution High Definition 300 Å Stable Bond C3, 2.1×100 mm, 1.8 μm column) attached to an Agilent 6129 quadrupole mass spectrometer in positive ion mode. The column was held at 45° C. Mobile solution A was 0.1% formic acid in water, and mobile phase B was 0.1% formic acid in acetonitrile. The gradient used was hold at 10% B for 5 min, increase linearly to 80% B for 15 min, and then hold at 80% B for 5 min. The mass data were collected at a range of 600-1500 m/z. Raw data were processed using MestReNova. For all samples, the deconvoluted mass was calculated by taking the m/z range of 730-1100 Da, and deconvoluted mass range from 36500-37200 Da. An abundance threshold of 10% and tolerance of 30 ppm was set for deconvolution. Unreacted SHP2's total deconvoluted mass was 36602±10 Da; for each deconvolution, the highest deconvoluted mass intensity was utilized as the mass pivot point to determine and identify reacted SHP2 adducts. To calculate the percent SHP2 reacted, the relative abundance intensity of reacted SHP2 was divided by the total relative abundance intensities of unreacted and reacted SHP2.

SHP1, sequence (P29350 whole entry): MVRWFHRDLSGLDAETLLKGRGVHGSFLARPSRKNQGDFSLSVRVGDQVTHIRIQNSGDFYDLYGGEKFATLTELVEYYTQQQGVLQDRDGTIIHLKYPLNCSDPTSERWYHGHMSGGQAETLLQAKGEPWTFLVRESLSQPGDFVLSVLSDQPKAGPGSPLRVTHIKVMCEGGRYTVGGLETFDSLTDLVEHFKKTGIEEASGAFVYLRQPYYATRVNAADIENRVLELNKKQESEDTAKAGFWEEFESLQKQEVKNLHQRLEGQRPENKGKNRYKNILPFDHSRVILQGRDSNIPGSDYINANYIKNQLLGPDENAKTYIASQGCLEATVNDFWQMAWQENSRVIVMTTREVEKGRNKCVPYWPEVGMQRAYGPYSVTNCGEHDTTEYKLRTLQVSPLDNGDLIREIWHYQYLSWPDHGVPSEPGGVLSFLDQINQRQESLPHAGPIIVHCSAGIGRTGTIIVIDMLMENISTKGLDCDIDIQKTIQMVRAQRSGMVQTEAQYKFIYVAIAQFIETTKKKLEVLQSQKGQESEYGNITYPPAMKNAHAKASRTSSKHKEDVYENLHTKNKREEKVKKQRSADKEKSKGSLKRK

pIC50 [1]: 4.81 | pIC50 ([2]; SHP1, 10 minutes preincubation, curve not completed (solubility), extrapolated, read-out: 10 Minute IC50): 3.67 | Fold-Selective (10 Minutes) ([2]; SHP2 over SHP1): 13.75 fold | pIC50 ([3]; PTP1B, 10 minutes preincubation, curve not completed (solubility), extrapolated, read-out: 10 Minute IC50): 3.17 | Fold-Selective (10 Minutes) ([3]; SHP2 over PTP1B): 44.56 | Found Ligand Adduct (mass shift) ([4]; intact protein LC-MS): 461 Da | % SHP2 Reacted (overall adduct formation) ([4]; PVSN at 20 μM, compound 37 at 10 μM): 33%
Compound: C=C1C(=O)[C@@]2(C(=O)N3CCN(c4ccc(I)cc4)CC3)CC(=O)C[C@@H]1C2 [Compound 37]

Source: US20260327239A1, “COMPOUNDS FOR COVALENT INHIBITION OF SHP2” (Purdue Research Foundation, priority 2023, published 2026)
